Patent US9845321B2, “1,3-dihydro-2H-benzimidazol-2-one derivatives substituted with heterocycles as respiratory syncytial virus antiviral agents” (JANSSEN SCIENCES IRELAND UC, priority 2012, dated 2017)

Tests used:
[1] = system: rgRSV224 virus; experiment: Antiviral activity: rgRSV224 (GFP-expressing RSV) replication in HeLa cells, GFP expression measured three days post-virus exposure; assay type: cell-based; details: human respiratory syncytial virus, 72 h, read-out: WT activity pEC50 (converted)
Method: (§1) Black 96-well clear-bottom microtiter plates (Corning, Amsterdam, The Netherlands) were filled in duplicate using a customized robot system with serial 4-fold dilutions of compound in a final volume of 50 μl culture medium [RPMI medium without phenol red, 10% FBS, 0.04% gentamycin (50 mg/ml) and 0.5% DMSO]. Then, 100 μl of a HeLa cell suspension (5×10^4 cells/ml) in culture medium was added to each well followed by the addition of 50 μl rgRSV224 (MOI=0.02) virus in culture medium using a multidrop dispenser (Thermo Scientific, Erembodegem, Belgium). rgRSV224 virus is an engineered virus that includes an additional GFP gene (Hallak et al, 2000) and was in-licensed from the NIH (Bethesda, Md., USA). Medium, virus- and mock-infected controls were included in each test. Cells were incubated at 37° C. in a 5% CO2 atmosphere. Three days post-virus exposure, viral replication was quantified by measuring GFP expression in the cells by a MSM laser microscope (Tibotec, Beerse, Belgium). The EC50 was defined as the 50% inhibitory concentration for GFP expression. In parallel, compounds were incubated for three days in a set of white 96-well microtitier plates (Corning) and the cytotoxicity of compounds in HeLa cells was determined by measuring the ATP content of the cells using the ATPlite kit (PerkinElmer, Zaventem, Belgium) according to the manufacturer's instructions. The CC50 was defined as the 50% concentration for cytotoxicity.

[2] = in vitro; assay type: cell-based; details: human
Method: as §1

Compound	EC50 [1]	CC50 at 3 days [2]
CS(=O)(=O)CCCn1c(Cn2c(=O)n(C3CNC3)c3ccc(F)cc32)cc2cc(Cl)ccc21 [Compound P3, 1-(azetidin-3-yl)-3-((5-chloro-1-(3-(methylsulfonyl)propyl)-1H-indol-2-yl)methyl)-5-fluoro-1H-benzo[d]imidazol-2(3H)-one]	100 nM	12600 nM
COc1ccc(-n2c(=O)n(Cc3cc4cc(Cl)ccc4n3CCCC#N)c3cnccc32)c(F)c1 [Compound P45, 4-(5-chloro-2-((1-(2-fluoro-4-methoxyphenyl)-2-oxo-1H-imidazo[4,5-c]pyridin-3(2H)-yl)methyl)-1H-indol-1-yl)butanenitrile]	1 nM	15800 nM
N#CCCCn1c(Cn2c(=O)n(-c3nccs3)c3ccncc32)cc2cc(Cl)ccc21 [Compound P49, 4-(5-chloro-2-((2-oxo-1-(thiazol-2-yl)-1H-imidazo[4,5-c]pyridin-3(2H)-yl)methyl)-1H-indol-1-yl)butanenitrile]	6.31 nM	> 25100 nM
COCCOc1ccc(-n2c(=O)n(Cc3cc4cc(Cl)ccc4n3CCCC#N)c3cnccc32)cc1 [Compound P28, 4-(5-chloro-2-((1-(4-(2-methoxyethoxy)phenyl)-2-oxo-1H-imidazo[4,5-c]pyridin-3(2H)-yl)methyl)-1H-indol-1-yl)butanenitrile]	0.2 nM	> 100000 nM
CC1(n2c(=O)n(Cc3nc4nc(Cl)ccc4n3CCCC(F)(F)F)c3cnccc32)CC1 [Compound P9, 3-((5-chloro-1-(4,4,4-trifluorobutyl)-1H-imidazo[4,5-b]pyridin-2-yl)methyl)-1-(1-methylcyclopropyl)-1H-imidazo[4,5-c]pyridin-2(3H)-one]	1 nM	> 100000 nM
Cc1ccc(-n2c(=O)n(Cc3cc4cc(Cl)ccc4n3CCCC#N)c3cnccc32)cc1 [Compound P46, 4-(5-chloro-2-((2-oxo-1-p-tolyl-1H-imidazo[4,5-c]pyridin-3(2H)-yl)methyl)-1H-indol-1-yl)butanenitrile]	1.26 nM	> 100000 nM
COc1ccc(-n2c(=O)n(Cc3nc4nc(Cl)ccc4n3CCC(C)C)c3cnccc32)cc1 [Compound P16, 3-((5-chloro-1-isopentyl-1H-imidazo[4,5-b]pyridin-2-yl)methyl)-1-(4-methoxyphenyl)-1H-imidazo[4,5-c]pyridin-2(3H)-one]	1 nM	> 50100 nM
N#CCCCn1c(Cn2c(=O)n(-c3ccncc3)c3ccc(F)cc32)cc2cc(Cl)ccc21 [Compound P40, 4-(5-chloro-2-((6-fluoro-2-oxo-3-(pyridin-4-yl)-2,3-dihydro-1H-benzo[d]imidazol-1-yl)methyl)-1H-indol-1-yl)butanenitrile]	–	> 100000 nM
COc1ccc(-n2c(=O)n(Cc3cc4cc(Cl)ccc4n3CCCC#N)c3cnccc32)c(OC)c1 [Compound P47, 4-(5-chloro-2-((1-(2,4-dimethoxyphenyl)-2-oxo-1H-imidazo[4,5-c]pyridin-3(2H)-yl)methyl)-1H-indol-1-yl)butanenitrile]	1.58 nM	> 100000 nM
CC(C)CCn1c(Cn2c(=O)n(-c3ccncc3)c3ccncc32)nc2nc(Cl)ccc21 [Compound P23, 3-((5-chloro-1-isopentyl-1H-imidazo[4,5-b]pyridin-2-yl)methyl)-1-(pyridin-4-yl)-1H-imidazo[4,5-c]pyridin-2(3H)-one]	7.94 nM	> 100000 nM
O=c1n(Cc2cc3cc(Cl)ccc3n2CCCCF)c2cnccc2n1-c1ccc2ncccc2c1 [Compound P31, 3-((5-chloro-1-(4-fluorobutyl)-1H-indol-2-yl)methyl)-1-(quinolin-6-yl)-1H-imidazo[4,5-c]pyridin-2(3H)-one]	1.58 nM	> 100000 nM
N#CCCCn1c(Cn2c(=O)n(-c3ccc4ncccc4c3)c3ccncc32)cc2cc(Cl)ccc21 [Compound P43, 4-(5-chloro-2-((2-oxo-1-(quinolin-6-yl)-1H-imidazo[4,5-c]pyridin-3(2H)-yl)methyl)-1H-indol-1-yl)butanenitrile]	0.398 nM	> 100000 nM
CS(=O)(=O)c1ccc(-n2c(=O)n(Cc3cc4cc(Cl)ccc4n3CCCC#N)c3cnccc32)cc1 [Compound P41, 4-(5-chloro-2-((1-(4-(methylsulfonyl)phenyl)-2-oxo-1H-imidazo[4,5-c]pyridin-3(2H)-yl)methyl)-1H-indol-1-yl)butanenitrile]	0.2 nM	> 100000 nM
CC(C)(O)CN1CC(n2c(=O)n(Cc3cc4cc(Cl)ccc4n3CCCS(C)(=O)=O)c3cc(F)ccc32)C1 [Compound P12, 3-((5-chloro-1-(3(methylsulfonyl)propyl)-1H-indol-2-yl)methyl)-5-fluoro-1-(1-(2-hydroxy-2-methylpropyl)azetidin-3-yl)-1H-benzo[d]imidazol-2(3H)-one]	39.8 nM	12600 nM
N#CCCCn1c(Cn2c(=O)n(-c3ccc(OC(F)(F)F)cc3)c3ccncc32)cc2cc(Cl)ccc21 [Compound P29, 4-(5-chloro-2-((2-oxo-1-(4-(trifluoromethoxy)phenyl)-1H-imidazo[4,5-c]pyridin-3(2H)-yl)methyl)-1H-indol-1-yl)butanenitrile]	1.26 nM	> 100000 nM
N#CCCCn1c(Cn2c(=O)n(-c3ccncc3)c3ccncc32)cc2cc(Cl)ccc21 [Compound P48, 4-(5-chloro-2-((2-oxo-1-(pyridin-4-yl)-1H-imidazo[4,5-c]pyridin-3(2H)-yl)methyl)-1H-indol-1-yl)butanenitrile]	2.51 nM	> 100000 nM
N#CCCCn1c(Cn2c(=O)n(-c3ccc(C(=O)O)cc3)c3ccncc32)cc2cc(Cl)ccc21 [Compound P52, 4-(3-((5-chloro-1-(3-cyanopropyl)-1H-indol-2-yl)methyl)-2-oxo-2,3-dihydro-1H-imidazo[4,5-c]pyridin-1-yl)benzoic acid]	0.501 nM	> 25100 nM
N#CCCCn1c(Cn2c(=O)n(-c3ccc(C(=O)NC4CC4)cc3)c3ccncc32)cc2cc(Cl)ccc21 [Compound P53, 4-(3-((5-chloro-1-(3-cyanopropyl)-1H-indol-2-yl)methyl)-2-oxo-2,3-dihydro-1H-imidazo[4,5-c]pyridin-1-yl)-N-cyclopropylbenzamide]	0.501 nM	25100 nM
N#CCCCn1c(Cn2c(=O)n(-c3ncccn3)c3ccncc32)cc2cc(Cl)ccc21 [Compound P21, 4-(5-chloro-2-((2-oxo-1-(pyrimidin-2-yl)-1H-imidazo[4,5-c]pyridin-3(2H)-yl)methyl)-1H-indol-1-yl)butanenitrile]	6.31 nM	> 100000 nM
COc1ccc(-n2c(=O)n(Cc3cc4nc(Cl)ccc4n3CCCC(F)(F)F)c3cnccc32)cc1 [Compound P17, 3-((5-chloro-1-(4,4,4-trifluorobutyl)-1H-pyrrolo[3,2-b]pyridin-2-yl)-methyl)-1-(4-methoxyphenyl)-1H-imidazo[4,5-c]pyridin-2(3H)-one]	10 nM	> 100000 nM
O=c1n(Cc2cc3cc(Cl)ccc3n2CCCCF)c2cnccc2n1-c1ccncc1 [Compound P44, 3-((5-chloro-1-(4-fluorobutyl)-1H-indol-2-yl)methyl)-1-(pyridin-4-yl)-1H-imidazo[4,5-c]pyridin-2(3H)-one]	1 nM	> 100000 nM
